Our source for the inhibition and residual activity values is ChEMBL document CHEMBL5696442, “Discovery of type II inhibitors of TGFβ-activated kinase 1 (TAK1) and mitogen-activated protein kinase kinase kinase kinase 2 (MAP4K2)” (J Med Chem, 2015).

One may read the inhibition as the change of the read-out against control, counted positive when it falls. By residual activity is commonly meant the activity still measured, relative to the control. Lower therefore signals a large loss of activity.

For assay [1], the target named is T1, Phosphatidylinositol 5-phosphate 4-kinase type-2 gamma (Homo sapiens) (UniProt Q8TBX8).
T1 sequence (whole entry): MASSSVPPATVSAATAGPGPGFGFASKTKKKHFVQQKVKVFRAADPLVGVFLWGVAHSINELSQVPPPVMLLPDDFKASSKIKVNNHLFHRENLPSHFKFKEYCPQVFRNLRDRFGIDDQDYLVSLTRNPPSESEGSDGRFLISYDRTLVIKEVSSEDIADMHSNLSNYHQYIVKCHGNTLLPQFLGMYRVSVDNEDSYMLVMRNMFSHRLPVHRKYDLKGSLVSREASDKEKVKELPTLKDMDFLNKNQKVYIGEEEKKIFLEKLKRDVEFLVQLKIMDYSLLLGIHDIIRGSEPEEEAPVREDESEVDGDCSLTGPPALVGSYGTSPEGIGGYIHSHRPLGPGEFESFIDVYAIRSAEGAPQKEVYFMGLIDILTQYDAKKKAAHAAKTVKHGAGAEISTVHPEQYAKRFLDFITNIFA
The assay is described as follows: Inhibition of PIP4K2C ATP labeling site harbouring VKELPTLK in human A-375 cells at 5 uM by KiNativ Profiling analysis relative to control. Format: cell-based.

For assay [2], the target named is Tyrosine-protein kinase Srms (Homo sapiens) (UniProt Q9H3Y6). Briefly: Inhibition of SRMS (unknown origin) at 1 uM by Ambit Kinomescan binding assay relative to control.
The target of assay [3] is Serine/threonine-protein kinase 38-like (Homo sapiens) (UniProt Q9Y2H1). Briefly: Inhibition of NDR2 (unknown origin) at 1 uM by Ambit Kinomescan binding assay relative to control; values are per cent of control.
For assay [4], the target named is Phosphatidylinositol 4,5-bisphosphate 3-kinase catalytic subunit beta isoform (Homo sapiens) (UniProt P42338). The assay is described as follows: Inhibition of PIK3CB ATP labeling site in human A-375 cells at 5 uM by KiNativ Profiling analysis relative to control. Format: cell-based.
Assay [5] concerns the target T2, Mitogen-activated protein kinase kinase kinase 7 (Homo sapiens) (UniProt O43318).
T2 sequence (whole entry): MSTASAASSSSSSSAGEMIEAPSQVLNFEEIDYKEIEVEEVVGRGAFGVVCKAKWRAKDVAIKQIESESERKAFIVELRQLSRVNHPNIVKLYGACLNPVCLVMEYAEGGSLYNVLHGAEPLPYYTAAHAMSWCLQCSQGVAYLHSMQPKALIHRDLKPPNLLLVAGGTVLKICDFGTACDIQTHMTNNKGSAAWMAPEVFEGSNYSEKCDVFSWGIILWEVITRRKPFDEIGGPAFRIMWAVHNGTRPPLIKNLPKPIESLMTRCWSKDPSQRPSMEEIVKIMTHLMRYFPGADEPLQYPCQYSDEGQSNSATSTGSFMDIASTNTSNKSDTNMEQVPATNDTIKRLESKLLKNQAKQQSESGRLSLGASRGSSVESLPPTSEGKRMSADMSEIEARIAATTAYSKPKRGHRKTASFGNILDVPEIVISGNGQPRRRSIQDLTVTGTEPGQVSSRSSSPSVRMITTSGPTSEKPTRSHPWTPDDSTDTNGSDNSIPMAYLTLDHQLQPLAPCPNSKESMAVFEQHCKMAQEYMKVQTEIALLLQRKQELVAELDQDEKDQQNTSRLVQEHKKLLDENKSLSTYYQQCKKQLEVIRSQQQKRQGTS
Briefly: Inhibition of TAK1 Lys2 labeling site in human A-375 cells at 5 uM by KiNativ Profiling analysis relative to control. Format: cell-based.

Assay [6] addresses Interferon-induced, double-stranded RNA-activated protein kinase (Homo sapiens) (UniProt P19525). Briefly: Inhibition of PKR ACT labeling site in human Huh-7 cells at 10 uM by KiNativ Profiling analysis relative to control. Format: cell-based.
In assay [7] the target is Peripheral plasma membrane protein CASK (Homo sapiens) (UniProt O14936). Briefly: Inhibition of CASK K1 labeling site in human Huh-7 cells at 1 uM by KiNativ Profiling analysis relative to control.
Assay [8] deals with T3, Phosphatidylinositol 4,5-bisphosphate 3-kinase catalytic subunit delta isoform (Homo sapiens) (UniProt O00329).
T3 sequence (whole entry): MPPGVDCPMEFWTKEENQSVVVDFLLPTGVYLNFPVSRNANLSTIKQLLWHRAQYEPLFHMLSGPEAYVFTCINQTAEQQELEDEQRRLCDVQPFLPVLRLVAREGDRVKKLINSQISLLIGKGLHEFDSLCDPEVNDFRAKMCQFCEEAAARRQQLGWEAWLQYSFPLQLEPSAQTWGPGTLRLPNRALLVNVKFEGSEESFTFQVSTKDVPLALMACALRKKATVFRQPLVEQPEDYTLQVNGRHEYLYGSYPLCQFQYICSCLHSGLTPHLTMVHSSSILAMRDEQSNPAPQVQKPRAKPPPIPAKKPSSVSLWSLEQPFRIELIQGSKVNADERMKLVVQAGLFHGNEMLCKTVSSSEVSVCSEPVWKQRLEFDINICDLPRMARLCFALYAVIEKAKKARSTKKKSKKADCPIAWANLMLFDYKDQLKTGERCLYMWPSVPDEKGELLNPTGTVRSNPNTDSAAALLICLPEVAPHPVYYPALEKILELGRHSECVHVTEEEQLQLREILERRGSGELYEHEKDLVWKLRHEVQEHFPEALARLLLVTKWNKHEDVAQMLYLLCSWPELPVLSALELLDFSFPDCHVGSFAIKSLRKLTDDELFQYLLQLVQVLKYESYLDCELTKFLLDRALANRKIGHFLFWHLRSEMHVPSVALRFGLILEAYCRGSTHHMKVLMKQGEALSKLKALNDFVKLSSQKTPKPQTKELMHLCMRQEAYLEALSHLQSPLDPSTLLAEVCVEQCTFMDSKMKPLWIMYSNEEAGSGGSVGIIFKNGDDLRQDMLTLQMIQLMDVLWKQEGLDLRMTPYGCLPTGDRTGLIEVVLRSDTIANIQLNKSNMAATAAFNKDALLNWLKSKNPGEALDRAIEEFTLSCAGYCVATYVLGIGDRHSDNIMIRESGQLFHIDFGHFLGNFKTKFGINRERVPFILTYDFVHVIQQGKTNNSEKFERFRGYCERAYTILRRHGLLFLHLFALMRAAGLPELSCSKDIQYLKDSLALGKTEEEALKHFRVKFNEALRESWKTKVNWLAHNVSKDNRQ
The assay is described as follows: Inhibition of PIK3CD (unknown origin) at 10 uM by Ambit Kinomescan binding assay.

Assay [9] addresses Tyrosine-protein kinase ABL2 (Homo sapiens, UniProt P42684). Briefly: Inhibition of ARG Lys1 labeling site in human A-375 cells at 0.05 uM by KiNativ Profiling analysis relative to control. In kind it is cell-based.
Assay [10] deals with Cyclin-dependent kinase 11B (Homo sapiens) (UniProt P21127). The assay is described as follows: Inhibition of CDK11 Lys2 labeling site in human Huh-7 cell lysate at 1 uM by KiNativ Profiling analysis relative to control. In kind it is subcellular.
Assay [11] addresses Glycogen synthase kinase-3 beta (Homo sapiens) (UniProt P49841). The assay is described as follows: Inhibition of GSK3B Lys2 labeling site in human Huh-7 cell lysate at 1 uM by KiNativ Profiling analysis relative to control. Format: subcellular.

Active and inactive are the calls of the source. The rule behind the calls is not given here.

Cyclin-dependent kinase 11B (Homo sapiens), sequence (P21127 whole entry): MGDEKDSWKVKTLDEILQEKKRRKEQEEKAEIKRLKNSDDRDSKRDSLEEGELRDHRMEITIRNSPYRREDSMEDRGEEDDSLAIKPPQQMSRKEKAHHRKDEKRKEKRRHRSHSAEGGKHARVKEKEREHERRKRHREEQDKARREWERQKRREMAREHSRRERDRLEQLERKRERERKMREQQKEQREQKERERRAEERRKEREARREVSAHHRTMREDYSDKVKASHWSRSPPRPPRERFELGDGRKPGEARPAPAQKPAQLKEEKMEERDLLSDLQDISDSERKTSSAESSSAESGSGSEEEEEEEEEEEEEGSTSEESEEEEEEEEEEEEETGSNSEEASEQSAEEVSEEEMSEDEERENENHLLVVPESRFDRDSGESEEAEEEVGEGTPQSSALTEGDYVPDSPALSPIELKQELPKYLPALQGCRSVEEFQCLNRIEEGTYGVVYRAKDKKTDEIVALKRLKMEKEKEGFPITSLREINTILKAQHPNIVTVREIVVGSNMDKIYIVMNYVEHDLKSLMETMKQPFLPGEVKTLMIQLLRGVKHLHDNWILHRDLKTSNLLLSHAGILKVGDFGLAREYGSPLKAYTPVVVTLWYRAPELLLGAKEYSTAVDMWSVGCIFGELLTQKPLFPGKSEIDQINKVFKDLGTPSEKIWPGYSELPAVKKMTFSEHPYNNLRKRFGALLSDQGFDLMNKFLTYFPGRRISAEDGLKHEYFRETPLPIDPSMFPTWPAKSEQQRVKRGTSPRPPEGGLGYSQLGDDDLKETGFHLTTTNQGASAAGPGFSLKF
Tyrosine-protein kinase Srms (Homo sapiens), sequence (Q9H3Y6 whole entry): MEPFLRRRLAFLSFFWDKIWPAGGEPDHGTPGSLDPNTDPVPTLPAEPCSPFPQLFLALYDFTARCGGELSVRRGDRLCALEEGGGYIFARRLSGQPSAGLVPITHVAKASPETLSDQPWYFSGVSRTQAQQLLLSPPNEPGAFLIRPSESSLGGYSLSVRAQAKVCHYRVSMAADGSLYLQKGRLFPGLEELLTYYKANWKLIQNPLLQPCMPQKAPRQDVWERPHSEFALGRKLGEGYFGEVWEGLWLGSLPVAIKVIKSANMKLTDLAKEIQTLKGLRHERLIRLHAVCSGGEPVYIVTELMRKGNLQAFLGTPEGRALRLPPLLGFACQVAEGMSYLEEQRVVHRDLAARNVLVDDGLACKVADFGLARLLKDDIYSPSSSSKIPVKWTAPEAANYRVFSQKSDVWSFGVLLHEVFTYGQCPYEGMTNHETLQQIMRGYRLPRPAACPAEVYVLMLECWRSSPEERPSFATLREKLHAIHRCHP
Peripheral plasma membrane protein CASK (Homo sapiens), sequence (O14936 whole entry, looked up, canonical isoform): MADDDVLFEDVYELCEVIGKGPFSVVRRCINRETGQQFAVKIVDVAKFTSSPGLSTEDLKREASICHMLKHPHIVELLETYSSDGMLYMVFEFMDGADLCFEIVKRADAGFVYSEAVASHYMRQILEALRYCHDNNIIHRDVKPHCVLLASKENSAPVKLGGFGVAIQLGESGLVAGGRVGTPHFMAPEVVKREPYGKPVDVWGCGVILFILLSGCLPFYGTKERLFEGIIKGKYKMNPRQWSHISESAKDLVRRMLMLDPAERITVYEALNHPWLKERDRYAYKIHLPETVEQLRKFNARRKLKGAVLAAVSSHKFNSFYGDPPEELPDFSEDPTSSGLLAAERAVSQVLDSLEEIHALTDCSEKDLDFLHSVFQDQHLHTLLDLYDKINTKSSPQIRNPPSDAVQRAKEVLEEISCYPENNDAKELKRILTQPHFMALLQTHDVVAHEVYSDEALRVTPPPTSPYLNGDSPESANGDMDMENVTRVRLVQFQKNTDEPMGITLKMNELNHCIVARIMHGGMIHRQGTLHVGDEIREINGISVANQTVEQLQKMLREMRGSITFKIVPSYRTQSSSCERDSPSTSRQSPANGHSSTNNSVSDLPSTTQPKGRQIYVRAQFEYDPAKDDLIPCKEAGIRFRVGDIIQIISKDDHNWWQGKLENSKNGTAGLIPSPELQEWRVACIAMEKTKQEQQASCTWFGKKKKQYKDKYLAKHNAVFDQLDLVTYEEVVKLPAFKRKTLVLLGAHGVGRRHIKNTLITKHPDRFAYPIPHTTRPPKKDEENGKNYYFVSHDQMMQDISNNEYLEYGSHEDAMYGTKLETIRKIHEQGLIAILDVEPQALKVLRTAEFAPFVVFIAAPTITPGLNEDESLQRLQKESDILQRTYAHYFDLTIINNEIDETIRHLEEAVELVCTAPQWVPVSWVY
Serine/threonine-protein kinase 38-like (Homo sapiens), sequence (Q9Y2H1 2-464 limits assumed): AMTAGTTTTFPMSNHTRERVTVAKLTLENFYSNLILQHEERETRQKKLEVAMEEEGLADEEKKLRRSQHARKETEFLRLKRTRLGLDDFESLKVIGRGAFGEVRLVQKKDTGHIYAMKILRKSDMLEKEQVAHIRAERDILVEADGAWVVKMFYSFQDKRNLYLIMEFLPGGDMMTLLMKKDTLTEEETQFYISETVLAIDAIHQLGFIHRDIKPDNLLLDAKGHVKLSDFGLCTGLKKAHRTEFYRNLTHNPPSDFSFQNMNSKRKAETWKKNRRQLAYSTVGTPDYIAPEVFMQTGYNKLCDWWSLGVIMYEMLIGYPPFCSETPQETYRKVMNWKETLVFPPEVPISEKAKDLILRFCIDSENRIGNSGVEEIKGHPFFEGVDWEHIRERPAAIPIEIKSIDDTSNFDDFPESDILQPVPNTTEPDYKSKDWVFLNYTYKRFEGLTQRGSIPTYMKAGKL
Interferon-induced, double-stranded RNA-activated protein kinase (Homo sapiens), sequence (P19525 whole entry): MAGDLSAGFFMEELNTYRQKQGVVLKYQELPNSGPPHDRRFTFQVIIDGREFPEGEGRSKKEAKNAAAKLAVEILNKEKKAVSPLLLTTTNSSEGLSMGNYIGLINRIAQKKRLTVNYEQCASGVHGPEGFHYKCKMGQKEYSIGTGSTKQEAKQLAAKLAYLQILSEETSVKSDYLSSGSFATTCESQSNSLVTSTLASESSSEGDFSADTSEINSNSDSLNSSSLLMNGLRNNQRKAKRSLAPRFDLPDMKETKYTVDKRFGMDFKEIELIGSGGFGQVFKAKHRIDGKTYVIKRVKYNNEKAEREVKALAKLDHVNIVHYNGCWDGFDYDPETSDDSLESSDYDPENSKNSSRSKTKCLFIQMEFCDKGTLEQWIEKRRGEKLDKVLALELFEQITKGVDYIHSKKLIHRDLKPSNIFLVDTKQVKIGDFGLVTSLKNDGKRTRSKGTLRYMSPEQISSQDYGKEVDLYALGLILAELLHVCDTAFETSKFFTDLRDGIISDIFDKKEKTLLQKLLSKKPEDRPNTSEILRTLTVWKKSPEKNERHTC
Tyrosine-protein kinase ABL2, sequence (P42684 whole entry): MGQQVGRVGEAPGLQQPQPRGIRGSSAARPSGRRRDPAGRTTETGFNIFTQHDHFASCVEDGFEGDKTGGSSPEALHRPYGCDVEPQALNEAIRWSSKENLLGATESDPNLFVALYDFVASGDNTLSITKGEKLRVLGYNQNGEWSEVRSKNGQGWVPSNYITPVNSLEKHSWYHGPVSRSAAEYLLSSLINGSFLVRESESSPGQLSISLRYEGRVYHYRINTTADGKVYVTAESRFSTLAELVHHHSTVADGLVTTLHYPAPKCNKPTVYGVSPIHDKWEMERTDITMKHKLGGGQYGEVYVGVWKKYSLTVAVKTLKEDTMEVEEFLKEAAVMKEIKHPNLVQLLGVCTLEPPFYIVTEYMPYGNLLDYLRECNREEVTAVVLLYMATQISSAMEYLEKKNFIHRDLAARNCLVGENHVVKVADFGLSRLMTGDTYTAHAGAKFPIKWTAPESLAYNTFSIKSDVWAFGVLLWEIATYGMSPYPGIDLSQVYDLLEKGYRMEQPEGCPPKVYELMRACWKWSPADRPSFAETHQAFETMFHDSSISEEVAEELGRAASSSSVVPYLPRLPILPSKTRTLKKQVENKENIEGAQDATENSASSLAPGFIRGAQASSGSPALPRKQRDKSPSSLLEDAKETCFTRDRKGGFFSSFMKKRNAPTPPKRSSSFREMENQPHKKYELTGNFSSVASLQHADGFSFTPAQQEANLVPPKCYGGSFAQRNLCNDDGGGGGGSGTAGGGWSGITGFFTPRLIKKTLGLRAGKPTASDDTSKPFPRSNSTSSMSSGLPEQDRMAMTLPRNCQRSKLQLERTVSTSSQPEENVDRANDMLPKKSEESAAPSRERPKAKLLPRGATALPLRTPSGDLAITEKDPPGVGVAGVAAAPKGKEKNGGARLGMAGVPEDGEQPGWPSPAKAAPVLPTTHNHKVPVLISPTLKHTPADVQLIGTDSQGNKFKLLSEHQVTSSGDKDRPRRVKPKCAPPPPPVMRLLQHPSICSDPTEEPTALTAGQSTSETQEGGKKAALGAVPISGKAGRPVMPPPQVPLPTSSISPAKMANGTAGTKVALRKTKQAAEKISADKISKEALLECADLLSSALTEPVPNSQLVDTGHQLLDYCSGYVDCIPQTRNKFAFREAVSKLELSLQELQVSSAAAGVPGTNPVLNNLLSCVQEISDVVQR
Glycogen synthase kinase-3 beta (Homo sapiens), sequence (P49841 whole entry, looked up): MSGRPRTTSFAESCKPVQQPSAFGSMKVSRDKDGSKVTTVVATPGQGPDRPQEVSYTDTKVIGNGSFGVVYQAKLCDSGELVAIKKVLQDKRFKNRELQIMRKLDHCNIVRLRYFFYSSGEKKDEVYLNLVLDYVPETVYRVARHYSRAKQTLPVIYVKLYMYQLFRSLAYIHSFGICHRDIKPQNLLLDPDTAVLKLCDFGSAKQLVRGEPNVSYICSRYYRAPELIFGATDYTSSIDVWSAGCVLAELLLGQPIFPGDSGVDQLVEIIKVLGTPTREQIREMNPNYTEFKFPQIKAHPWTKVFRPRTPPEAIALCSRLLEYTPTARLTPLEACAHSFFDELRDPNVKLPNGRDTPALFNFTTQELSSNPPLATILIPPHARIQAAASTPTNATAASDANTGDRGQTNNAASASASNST

`CCN1CCN(Cc2ccc(NC(=O)c3ccc(C)c(/C=C/c4cnc5[nH]ccc5c4OC)c3)cc2C(F)(F)F)CC1`: the inhibition is -6% in assay [1], 34% in assay [2] and 26.6% in [4]. In addition, in assay [3], the residual activity was found to be 79%.
With `CCN1CCN(Cc2ccc(NC(=O)c3ccc(C)c(Oc4ccnc5[nH]ccc45)c3)cc2C(F)(F)F)CC1`, the inhibition was above 95% in [5], 40.8% in [6], 3.8% in [7] and 84.8% in assay [9]. Also, the inhibition entry in assay [8] was “inactive”.
Regarding `CNc1cc(Oc2cc(C(=O)Nc3cc(N4CCN(C)CC4)cc(C(F)(F)F)c3)ccc2C)ncn1`, the inhibition is -8.6% in [10] and 6% in assay [11].
